Laboratory results reported in patent US12662491B2 (Redona Therapeutics, Inc., priority 2020, dated 2026).
Read-outs that look alike come from different tables or passages of the source. One block for each compound: values may come before it.

Target: T1, Zcchc11 enzyme (Homo sapiens, UniProt Q5TAX3)
T1 construct: made in house; host or cells: HEK293 cells (Zcchc11); E. coli Rosetta II (LIN28A)
T1 sequence (Q5TAX3 212-1420): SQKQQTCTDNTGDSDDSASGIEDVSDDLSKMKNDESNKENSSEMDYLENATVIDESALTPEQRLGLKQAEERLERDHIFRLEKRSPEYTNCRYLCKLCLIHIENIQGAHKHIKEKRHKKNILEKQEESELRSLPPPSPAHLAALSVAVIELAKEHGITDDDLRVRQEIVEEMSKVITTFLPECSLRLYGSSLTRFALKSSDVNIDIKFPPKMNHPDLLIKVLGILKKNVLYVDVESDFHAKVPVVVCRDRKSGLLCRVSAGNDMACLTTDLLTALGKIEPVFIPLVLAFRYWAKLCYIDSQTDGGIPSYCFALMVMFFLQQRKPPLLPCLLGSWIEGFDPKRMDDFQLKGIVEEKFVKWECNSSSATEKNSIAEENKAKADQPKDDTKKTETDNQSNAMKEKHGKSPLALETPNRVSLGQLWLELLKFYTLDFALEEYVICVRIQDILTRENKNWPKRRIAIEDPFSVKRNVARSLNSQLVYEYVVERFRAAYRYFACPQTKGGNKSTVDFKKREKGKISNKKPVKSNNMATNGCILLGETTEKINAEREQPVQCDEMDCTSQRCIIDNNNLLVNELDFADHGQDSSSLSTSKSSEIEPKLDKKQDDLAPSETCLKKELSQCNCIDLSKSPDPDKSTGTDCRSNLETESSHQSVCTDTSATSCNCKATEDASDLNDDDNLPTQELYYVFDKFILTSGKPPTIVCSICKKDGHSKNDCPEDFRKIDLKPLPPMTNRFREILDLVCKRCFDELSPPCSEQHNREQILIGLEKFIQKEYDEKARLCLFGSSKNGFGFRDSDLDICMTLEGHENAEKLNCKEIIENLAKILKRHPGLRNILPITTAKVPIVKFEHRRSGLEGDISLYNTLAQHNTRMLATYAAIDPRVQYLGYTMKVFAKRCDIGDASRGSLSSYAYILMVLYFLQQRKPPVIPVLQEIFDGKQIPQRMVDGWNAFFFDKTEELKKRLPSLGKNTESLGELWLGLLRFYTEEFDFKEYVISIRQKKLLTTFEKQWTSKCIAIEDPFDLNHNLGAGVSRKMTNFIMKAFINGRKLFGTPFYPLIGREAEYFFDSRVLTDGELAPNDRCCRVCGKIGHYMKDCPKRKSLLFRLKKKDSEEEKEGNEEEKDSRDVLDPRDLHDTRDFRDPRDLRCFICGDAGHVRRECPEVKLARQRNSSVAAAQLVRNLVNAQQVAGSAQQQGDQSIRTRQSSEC
Assay: TUTase assay (Zcchc11 assay, Lin28a-dependent polyuridylation of pre-let-7)
Format: biochemical
Details: read-out: Potency Lin28a-dep Z11 IC50
Procedure, shortened: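 HEK293-expressed human Zcchc11 (residues 212-1420, 0.2 nM) with 10 nM LIN28A and 2 nM 5′-fluorescein pre-let-7, preincubated 30 min at room temperature, pH 7.3. Started with 5 uM UTP; poly(U) tails quenched by 3′-rhodamine A20 probe, read kinetically. IC50 from early-rate four-parameter fit; no-UTP wells define 0%.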

[1] = Lin28a-dependent Zcchc11 (Z11) TUTase activity
[2] = Lin28a-dependent Zcchc11 (Z11) TUTase assay

- IC50 [1]: 10 to 50 µM
SMILES: O=C(O)c1cn(-c2ccc(O)cc2F)c2c(F)c(N3CCC[C@H]3COc3ccccn3)c(F)cc2c1=O [Compound 82, (S)-6,8-difluoro-1-(2-fluoro-4-hydroxy-phenyl)-4-oxo-7-(2-((pyridin-2-yloxy)methyl)pyrrolidin-1-yl)-1,4-dihydro-quinoline-3-carboxylic acid]

- IC50 [2]: ≤ 1 µM
SMILES: Nc1ccc(-n2cc(C(=O)O)c(=O)c3cc(Cl)c(N4CCC[C@@H]4COc4nc(OC5CC5)ccc4Cl)cc32)cn1 [Example 647, (R)-1-(6-aminopyridin-3-yl)-6-chloro-7-(2-(((3-chloro-6-cyclopropoxy-pyridin-2-yl)oxy)methyl)pyrrolidin-1-yl)-4-oxo-1,4-dihydroquinoline-3-carboxylic acid]

- IC50 [1]: ≤ 1 µM
SMILES: COCCn1cc(-n2cc(C(=O)O)c(=O)c3cc(C#N)c(N4CCC[C@@H]4COc4ncccc4Cl)cc32)cn1 [Compound 242, 7-[(2R)-2-[[(3-chloropyridin-2-yl)oxy]methyl]pyrrolidin-1-yl]-6-cyano-1-[1-(2-methoxyethyl)pyrazol-4-yl]-4-oxoquinoline-3-carboxylic acid]

- IC50 [1]: ≤ 1 µM
SMILES: CC(=O)Nc1ccc(-n2cc(C(=O)O)c(=O)c3cc(F)c(N4CCC[C@@H]4COc4ccccn4)cc32)cc1 [Compound 159, (R)-1-(4-acetamido-phenyl)-6-fluoro-4-oxo-7-(2-((pyridin-2-yloxy)methyl)pyrrolidin-1-yl)-1,4-dihydro-quinoline-3-carboxylic acid]

Continued, compound first:

SMILES: Cc1ccc(-n2cc(C(=O)O)c(=O)c3cc(F)c(N4CCC[C@@H]4COc4ccccn4)cc32)c(C)c1 [Example 394, (R)-1-(2,4-dimethylphenyl)-6-fluoro-4-oxo-7-(2-((pyridin-2-yloxy)methyl)pyrrolidin-1-yl)-1,4-dihydroquinoline-3-carboxylic acid]
- IC50 [2]: 1 to 10 µM

SMILES: Nc1ccc(-n2cc(C(=O)O)c(=O)c3cc(Cl)c(N4CCC[C@@H]4COc4ncccc4Cl)nc32)cn1 (racemic) [Compound 190, rac-(R)-1-(6-aminopyridin-3-yl)-6-chloro-7-(2-(((3-chloropyridin-2-yl)oxy)methyl)pyrrolidin-1-yl)-4-oxo-1,4-dihydro-1,8-naphthyridine-3-carboxylic acid]
- IC50 [1]: ≤ 1 µM

SMILES: O=C(O)c1cn(-c2cccc(F)c2F)c2cc(N3CCC[C@@H]3COc3ccccn3)c(F)cc2c1=O [Example 376, (R)-1-(2,3-difluorophenyl)-6-fluoro-4-oxo-7-(2-((pyridin-2-yloxy)methyl)pyrrolidin-1-yl)-1,4-dihydroquinoline-3-carboxylic acid]
- IC50 [2]: 1 to 10 µM

SMILES: CN(C)C1CN(c2ccc(-n3cc(C(=O)O)c(=O)c4cc(Cl)c(N5CCC[C@@H]5COc5ccnn5C)cc43)cn2)C1 [Example 580, (R)-6-chloro-1-(6-(3-(dimethylamino)azetidin-1-yl)pyridin-3-yl)-7-(2-(((1-methyl-1H-pyrazol-5-yl)oxy)methyl)pyrrolidin-1-yl)-4-oxo-1,4-dihydroquinoline-3-carboxylic acid]
- IC50 [2]: ≤ 1 µM

SMILES: O=C(O)c1cn(-c2cnccn2)c2cc(N3C[C@@H](F)C[C@H]3COc3ncccc3Cl)c(Cl)cc2c1=O [Example 77, 6-chloro-7-[(2S,4S)-2-{[(3-chloropyridin-2-yl)oxy]methyl}-4-fluoropyrrolidin-1-yl]-4-oxo-1-(pyrazin-2-yl)-1,4-dihydroquinoline-3-carboxylic acid]
- IC50 (LIN28A 10 nM, Zcchc11 0.2 nM, 5′-fluorescein pre-let-7 miRNA 2 nM, UTP 5 uM, room temperature, 30 minutes pre-incubation): ≤ 1 µM

SMILES: CN(C)C1CN(c2ccc(-n3cc(C(=O)O)c(=O)c4cc(Cl)c(N5C(COc6ncccc6Cl)CCS5(=O)=O)cc43)cn2)C1 (centres unmarked) [Compound 311, 6-chloro-7-(3-(((3-chloropyridin-2-yl)oxy)methyl)-1,1-dioxidoiso-thiazolidin-2-yl)-1-(6-(3-(dimethyl-amino)azetidin-1-yl)pyridin-3-yl)-4-oxo-1,4-dihydro-quinoline-3-carboxylic acid]
- IC50 [1]: ≤ 1 µM

SMILES: CN(C)C1CN(c2ccc(-n3cc(C(=O)O)c(=O)c4cc(Cl)c(N5CCCC5)cc43)cn2)C1 [Compound 295, C6-chloro-1-(6-(3-(dimethyl-amino)azetidin-1-yl)pyridin-3-yl)-4-oxo-7-(pyrrolidin-1-yl)-1,4-dihydro-quinoline-3-carboxylic acid]
- IC50 [1]: 1 to 10 µM
